The target in one series is T1, Anoctamin-1 (Homo sapiens, UniProt Q5XXA6).
T1 sequence (Q5XXA6 whole entry): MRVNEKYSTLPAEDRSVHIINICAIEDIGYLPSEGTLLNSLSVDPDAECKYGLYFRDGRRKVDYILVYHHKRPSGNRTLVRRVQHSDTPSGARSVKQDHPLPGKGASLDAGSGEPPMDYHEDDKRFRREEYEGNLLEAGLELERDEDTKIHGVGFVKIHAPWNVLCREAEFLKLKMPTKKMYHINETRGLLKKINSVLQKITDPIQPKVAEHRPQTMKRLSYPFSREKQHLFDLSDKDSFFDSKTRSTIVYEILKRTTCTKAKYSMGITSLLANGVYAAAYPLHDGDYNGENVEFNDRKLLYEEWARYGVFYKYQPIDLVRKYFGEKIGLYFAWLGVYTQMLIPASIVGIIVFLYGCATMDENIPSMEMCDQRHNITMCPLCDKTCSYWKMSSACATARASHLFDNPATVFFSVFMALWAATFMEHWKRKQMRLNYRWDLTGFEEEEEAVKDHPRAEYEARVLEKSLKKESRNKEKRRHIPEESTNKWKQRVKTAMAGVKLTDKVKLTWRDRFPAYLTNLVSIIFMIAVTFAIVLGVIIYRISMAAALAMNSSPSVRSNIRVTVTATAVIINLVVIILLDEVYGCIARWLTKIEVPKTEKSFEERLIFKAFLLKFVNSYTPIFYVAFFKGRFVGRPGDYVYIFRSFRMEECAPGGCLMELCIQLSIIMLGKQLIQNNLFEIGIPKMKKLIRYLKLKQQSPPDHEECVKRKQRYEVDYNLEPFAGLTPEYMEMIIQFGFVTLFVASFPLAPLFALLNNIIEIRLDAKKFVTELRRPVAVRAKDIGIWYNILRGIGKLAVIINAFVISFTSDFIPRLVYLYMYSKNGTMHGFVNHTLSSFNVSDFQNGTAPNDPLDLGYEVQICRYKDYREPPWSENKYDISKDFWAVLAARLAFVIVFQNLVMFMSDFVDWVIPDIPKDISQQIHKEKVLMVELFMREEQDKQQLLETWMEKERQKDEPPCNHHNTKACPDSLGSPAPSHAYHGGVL
Briefly: Inhibition of YFP tagged ANO1 (unknown origin) expressed in FRT cells incubated for 24 hrs by fluorescence plate reader assay. Type of series: cell-based.

In series [1] the target is Transient receptor potential cation channel subfamily V member 1 (Homo sapiens) (UniProt Q8NER1). The experiment in a line: Inhibition of TRPV1 (unknown origin) at a holding potential +100 mV at 10 uM by whole cell patch clamp electrophysiology relative to control. For orientation: The patch-clamp technique gives a direct electrical read-out from membranes.
Transient receptor potential cation channel subfamily V member 1 (Homo sapiens), sequence (Q8NER1 whole entry): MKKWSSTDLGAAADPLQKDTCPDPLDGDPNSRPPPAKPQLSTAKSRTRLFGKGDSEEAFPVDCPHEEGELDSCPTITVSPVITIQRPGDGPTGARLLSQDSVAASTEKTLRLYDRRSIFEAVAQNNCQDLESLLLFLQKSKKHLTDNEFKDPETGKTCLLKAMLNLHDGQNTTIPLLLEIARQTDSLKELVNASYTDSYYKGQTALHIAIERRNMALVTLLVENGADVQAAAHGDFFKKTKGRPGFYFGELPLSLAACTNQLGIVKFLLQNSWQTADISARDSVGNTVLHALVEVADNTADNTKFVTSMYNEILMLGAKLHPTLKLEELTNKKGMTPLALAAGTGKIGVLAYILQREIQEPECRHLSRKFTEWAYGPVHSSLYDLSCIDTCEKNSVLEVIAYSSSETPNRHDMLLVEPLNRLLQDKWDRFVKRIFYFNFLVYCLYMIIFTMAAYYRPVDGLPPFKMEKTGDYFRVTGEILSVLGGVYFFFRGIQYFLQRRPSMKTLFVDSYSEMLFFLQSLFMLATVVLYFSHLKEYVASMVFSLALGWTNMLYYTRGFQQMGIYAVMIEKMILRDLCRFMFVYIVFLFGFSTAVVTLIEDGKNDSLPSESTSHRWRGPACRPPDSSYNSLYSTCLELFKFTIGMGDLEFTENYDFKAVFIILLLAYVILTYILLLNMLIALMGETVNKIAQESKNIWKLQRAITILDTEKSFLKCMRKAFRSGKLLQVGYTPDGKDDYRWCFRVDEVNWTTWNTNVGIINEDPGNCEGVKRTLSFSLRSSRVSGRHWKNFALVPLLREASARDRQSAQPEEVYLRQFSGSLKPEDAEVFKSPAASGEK
The test system of series [2] is Mus musculus. Briefly: Analgesic activity in C57BL/6 mouse model of formalin-induced allodynia assessed as reduction on foot licking pain response at 20 mg/kg,po measured after 10 mins. Type of series: functional, organism-based.
The target in series [3] is T2, Anoctamin-2 (Homo sapiens) (UniProt Q9NQ90).
T2 sequence (whole entry): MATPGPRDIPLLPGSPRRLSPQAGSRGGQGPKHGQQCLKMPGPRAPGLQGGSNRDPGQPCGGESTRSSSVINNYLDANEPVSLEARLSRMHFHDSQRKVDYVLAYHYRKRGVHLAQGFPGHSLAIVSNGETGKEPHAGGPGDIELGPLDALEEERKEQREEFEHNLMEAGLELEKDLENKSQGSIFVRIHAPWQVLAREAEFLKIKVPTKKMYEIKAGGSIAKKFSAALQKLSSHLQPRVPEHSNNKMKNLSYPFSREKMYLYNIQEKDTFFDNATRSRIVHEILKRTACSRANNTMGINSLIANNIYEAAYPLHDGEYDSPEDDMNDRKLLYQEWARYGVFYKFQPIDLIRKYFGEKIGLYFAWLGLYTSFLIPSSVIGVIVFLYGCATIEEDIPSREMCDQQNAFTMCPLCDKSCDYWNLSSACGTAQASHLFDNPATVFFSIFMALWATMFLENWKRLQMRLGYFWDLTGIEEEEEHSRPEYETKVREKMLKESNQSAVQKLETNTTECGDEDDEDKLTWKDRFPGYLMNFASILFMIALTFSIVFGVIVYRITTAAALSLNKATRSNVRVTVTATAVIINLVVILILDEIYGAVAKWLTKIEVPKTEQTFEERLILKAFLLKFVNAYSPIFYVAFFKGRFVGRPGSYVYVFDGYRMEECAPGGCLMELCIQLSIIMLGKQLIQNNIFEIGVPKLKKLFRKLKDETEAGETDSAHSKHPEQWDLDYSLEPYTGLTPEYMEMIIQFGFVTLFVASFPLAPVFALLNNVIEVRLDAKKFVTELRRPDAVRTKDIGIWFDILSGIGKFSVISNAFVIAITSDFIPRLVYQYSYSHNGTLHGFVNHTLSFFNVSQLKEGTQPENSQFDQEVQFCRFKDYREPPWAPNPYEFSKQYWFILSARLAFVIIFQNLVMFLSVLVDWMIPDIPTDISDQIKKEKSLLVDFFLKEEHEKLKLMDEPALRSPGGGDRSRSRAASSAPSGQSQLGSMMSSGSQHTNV
Briefly: Inhibition of human ANO2 expressed in HEK293 cells at 30 uM incubated for 5 mins by whole cell patch clamp electrophysiology relative to control. The series is classed as cell-based.

Series [4] deals with T3, Anoctamin-1 (Homo sapiens) (UniProt Q5XXA6).
T3 sequence (whole entry): T1 sequence (Q5XXA6 whole entry)
Briefly: Inhibition of YFP tagged ANO1 (unknown origin) expressed in FRT cells at 30 uM incubated for 24 hrs by whole cell patch clamp electrophysiology relative to control. The series is classed as cell-based.

The target of series [5] is Voltage-gated inwardly rectifying potassium channel KCNH2 (Homo sapiens, UniProt Q12809). Briefly: Cardiotoxicity against human ERG expressed in HEK293 cells by patch clamp assay. Type of series: toxicity, cell-based.
Voltage-gated inwardly rectifying potassium channel KCNH2, sequence (Q12809 whole entry): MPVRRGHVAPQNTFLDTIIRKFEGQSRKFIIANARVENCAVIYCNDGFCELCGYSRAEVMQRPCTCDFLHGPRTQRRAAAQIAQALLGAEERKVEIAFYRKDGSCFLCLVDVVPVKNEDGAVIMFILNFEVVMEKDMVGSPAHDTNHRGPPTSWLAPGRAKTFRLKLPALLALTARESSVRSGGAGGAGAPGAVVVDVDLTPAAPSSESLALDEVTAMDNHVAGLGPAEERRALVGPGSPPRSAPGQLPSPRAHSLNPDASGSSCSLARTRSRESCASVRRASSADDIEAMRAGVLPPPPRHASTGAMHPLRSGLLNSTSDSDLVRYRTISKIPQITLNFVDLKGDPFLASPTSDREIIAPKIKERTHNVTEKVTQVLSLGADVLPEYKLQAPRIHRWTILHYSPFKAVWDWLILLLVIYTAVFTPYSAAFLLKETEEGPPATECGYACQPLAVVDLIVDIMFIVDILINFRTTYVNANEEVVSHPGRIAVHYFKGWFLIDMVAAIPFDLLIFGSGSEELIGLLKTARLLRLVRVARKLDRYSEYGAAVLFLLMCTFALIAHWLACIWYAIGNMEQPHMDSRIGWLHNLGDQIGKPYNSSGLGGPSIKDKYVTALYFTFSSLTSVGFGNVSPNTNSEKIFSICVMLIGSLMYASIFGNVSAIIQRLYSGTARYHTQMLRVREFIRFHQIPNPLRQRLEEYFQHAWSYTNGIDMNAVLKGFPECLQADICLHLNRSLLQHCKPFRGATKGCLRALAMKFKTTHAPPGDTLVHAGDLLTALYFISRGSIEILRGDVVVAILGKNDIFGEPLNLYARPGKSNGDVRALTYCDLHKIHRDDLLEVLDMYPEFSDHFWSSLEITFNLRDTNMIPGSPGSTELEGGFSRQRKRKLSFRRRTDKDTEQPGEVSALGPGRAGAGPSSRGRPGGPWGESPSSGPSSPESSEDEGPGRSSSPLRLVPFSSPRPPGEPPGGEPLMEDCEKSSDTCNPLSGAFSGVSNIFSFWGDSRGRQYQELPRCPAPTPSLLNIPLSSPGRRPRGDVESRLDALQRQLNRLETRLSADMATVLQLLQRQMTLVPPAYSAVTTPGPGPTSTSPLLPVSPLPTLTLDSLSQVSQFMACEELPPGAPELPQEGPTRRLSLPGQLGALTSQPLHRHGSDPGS
Series [6] is described as follows: Cytotoxicity against human HEK293 cells assessed as inhibition of cell growth at 30 uM incubated for 72 hrs by CCK-8 assay. The series is classed as toxicity, cell-based.
For series [7], the target named is Transient receptor potential cation channel subfamily V member 1 (Homo sapiens) (UniProt Q8NER1). The experiment in a line: Inhibition of TRPV1 (unknown origin) at a holding potential +100 mV at 30 uM by whole cell patch clamp electrophysiology relative to control.
Series [8] deals with Mus musculus. The experiment in a line: Analgesic activity in C57BL/6 mouse model of formalin-induced allodynia assessed as reduction on foot licking pain response at 40 mg/kg,po measured after 10 mins. The series is classed as functional, organism-based.
For series [9], the target named is Voltage-gated potassium channel, KQT; KCNQ2(Kv7.2)/KCNQ3(Kv7.3) (Homo sapiens) (UniProt O43526+O43525). Briefly: Inhibition of KCNQ2/3 (unknown origin) at a holding potential -40 mV at 30 uM by whole cell patch clamp electrophysiology relative to control.
The target of series [10] is Voltage-dependent N-type calcium channel subunit alpha-1B (Homo sapiens) (UniProt Q00975). The experiment in a line: Inhibition of Cav2.2 (unknown origin) at a holding potential +10 mV at 10 uM by whole cell patch clamp electrophysiology relative to control.
Voltage-dependent N-type calcium channel subunit alpha-1B (Homo sapiens), sequence (Q00975 whole entry, looked up, tested part not stated): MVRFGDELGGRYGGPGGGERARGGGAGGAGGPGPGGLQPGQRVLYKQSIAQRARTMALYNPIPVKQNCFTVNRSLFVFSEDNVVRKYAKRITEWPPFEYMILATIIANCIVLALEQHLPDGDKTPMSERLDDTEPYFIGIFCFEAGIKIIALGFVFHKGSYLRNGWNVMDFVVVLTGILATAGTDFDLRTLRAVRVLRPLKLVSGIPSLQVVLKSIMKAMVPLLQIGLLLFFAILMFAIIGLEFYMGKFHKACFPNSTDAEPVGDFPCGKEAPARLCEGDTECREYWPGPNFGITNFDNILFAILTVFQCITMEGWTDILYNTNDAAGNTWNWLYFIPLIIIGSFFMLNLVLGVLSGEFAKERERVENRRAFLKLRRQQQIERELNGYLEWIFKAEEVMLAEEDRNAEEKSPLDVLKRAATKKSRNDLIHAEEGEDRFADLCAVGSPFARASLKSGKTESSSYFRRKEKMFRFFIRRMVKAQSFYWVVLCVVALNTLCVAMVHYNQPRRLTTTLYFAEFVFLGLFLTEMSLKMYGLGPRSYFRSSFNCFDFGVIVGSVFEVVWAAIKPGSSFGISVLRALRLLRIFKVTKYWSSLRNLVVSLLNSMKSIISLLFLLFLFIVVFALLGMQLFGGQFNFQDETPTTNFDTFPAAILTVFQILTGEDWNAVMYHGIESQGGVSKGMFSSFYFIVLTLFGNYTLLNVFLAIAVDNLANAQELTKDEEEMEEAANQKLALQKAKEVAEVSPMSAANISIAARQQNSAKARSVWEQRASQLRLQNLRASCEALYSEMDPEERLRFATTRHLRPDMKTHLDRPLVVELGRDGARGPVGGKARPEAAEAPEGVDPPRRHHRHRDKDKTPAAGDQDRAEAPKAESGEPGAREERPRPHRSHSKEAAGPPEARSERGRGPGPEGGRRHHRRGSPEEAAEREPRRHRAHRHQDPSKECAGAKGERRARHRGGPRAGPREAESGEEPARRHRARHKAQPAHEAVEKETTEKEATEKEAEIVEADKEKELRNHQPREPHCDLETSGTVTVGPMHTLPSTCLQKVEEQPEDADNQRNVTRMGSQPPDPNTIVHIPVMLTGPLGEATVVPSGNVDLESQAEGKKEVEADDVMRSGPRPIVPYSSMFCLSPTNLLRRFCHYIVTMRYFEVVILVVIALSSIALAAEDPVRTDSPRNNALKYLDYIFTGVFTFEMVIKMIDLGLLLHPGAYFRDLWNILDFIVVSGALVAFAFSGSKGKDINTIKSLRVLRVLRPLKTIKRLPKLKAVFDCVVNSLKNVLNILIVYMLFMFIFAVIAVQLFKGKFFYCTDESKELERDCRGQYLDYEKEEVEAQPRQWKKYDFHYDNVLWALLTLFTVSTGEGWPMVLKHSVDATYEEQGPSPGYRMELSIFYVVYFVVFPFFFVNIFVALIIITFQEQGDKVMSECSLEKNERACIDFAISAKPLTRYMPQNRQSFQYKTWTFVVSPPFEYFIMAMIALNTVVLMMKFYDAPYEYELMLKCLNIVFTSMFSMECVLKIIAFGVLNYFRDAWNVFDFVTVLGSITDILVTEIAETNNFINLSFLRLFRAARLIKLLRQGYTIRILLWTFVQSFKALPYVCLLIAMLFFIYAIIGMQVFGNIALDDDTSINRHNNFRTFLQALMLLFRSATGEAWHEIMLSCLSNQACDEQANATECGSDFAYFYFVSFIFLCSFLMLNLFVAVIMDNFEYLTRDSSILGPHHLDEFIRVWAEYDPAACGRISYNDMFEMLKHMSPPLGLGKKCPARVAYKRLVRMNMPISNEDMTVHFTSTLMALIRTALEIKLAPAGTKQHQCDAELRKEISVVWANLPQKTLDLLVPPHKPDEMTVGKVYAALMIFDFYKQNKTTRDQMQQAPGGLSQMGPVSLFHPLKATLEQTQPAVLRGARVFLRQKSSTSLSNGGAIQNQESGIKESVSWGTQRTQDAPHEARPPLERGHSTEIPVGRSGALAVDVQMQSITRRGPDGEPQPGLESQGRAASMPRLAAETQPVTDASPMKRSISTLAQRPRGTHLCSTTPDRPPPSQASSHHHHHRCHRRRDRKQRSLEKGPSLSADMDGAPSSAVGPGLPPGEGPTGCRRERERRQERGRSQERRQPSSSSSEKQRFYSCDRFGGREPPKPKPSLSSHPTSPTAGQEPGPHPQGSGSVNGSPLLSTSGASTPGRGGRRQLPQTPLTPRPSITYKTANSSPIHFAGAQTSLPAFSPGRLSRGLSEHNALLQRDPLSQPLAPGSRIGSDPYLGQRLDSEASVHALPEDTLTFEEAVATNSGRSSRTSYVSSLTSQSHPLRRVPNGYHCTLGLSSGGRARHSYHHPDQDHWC

Active and inactive are the calls of the source. The rule behind the calls is not given here.

As a reminder, the IC50 is the concentration that inhibits the measured activity by half. A lower IC50 goes with higher potency. `COc1ccc(Cl)c(C(=O)Nc2scc(-c3ccc(Cl)cc3)c2C(=O)O)c1` gave an IC50 against Anoctamin-1 of 35.9 µM.

`O=C(Nc1scc(-c2ccc(Cl)cc2)c1C(=O)O)c1cc(F)ccc1I` returned an IC50 on Anoctamin-1 of 2.21 µM.

In general, inhibition refers to the change of the read-out against control, counted positive when it falls. `COc1cc(CNC(=O)CCCC/C=C/C(C)C)ccc1O` came in with an inhibition in [1] of 96.7%.

As for `O=C(Nc1scc(-c2ccc(Cl)cc2)c1C(=O)O)c1ccc(Cl)cc1Cl`, on Anoctamin-1, the IC50 stood at 1.24 µM.

As for `CC(C)C[C@H](CN)CC(=O)O`, the outcome in the series with Mus musculus [2] was Active.

On Anoctamin-1, `Cc1ccsc1C(=O)Nc1scc(-c2ccc(Cl)cc2)c1C(=O)O` returned an IC50 of 3.12 µM.

Turning to `O=C(Nc1scc(-c2ccc(Cl)cc2)c1C(=O)O)c1cc(Cl)ccc1Br`, the IC50 against Anoctamin-1 is 0.029 µM; in series [5], greater than 30 µM. The inhibition in series [3] stood at 92.6%; in series [4], 32.1%; in series [7], 26.4%. Besides, the inhibition at 72 h, 30 µM in [6] was less than 10%.

At Anoctamin-1, `O=C(Nc1scc(-c2ccc(Cl)cc2)c1C(=O)O)c1cnccn1` showed an IC50 of 4.01 µM.

On Anoctamin-1, `O=C(Nc1scc(-c2ccc(Cl)cc2)c1C(=O)O)c1cc(Cl)ccc1F` returned an IC50 of 8.77 µM.

In series [3], `CC(C)(C)C1CCc2c(sc(NC(=O)c3ccco3)c2C(=O)O)C1` (configuration not stated) displayed an inhibition of 71.2%. In the series on Mus musculus [8], the outcome was Active.

Take `O=C(Nc1scc(-c2ccc(Cl)cc2)c1C(=O)O)c1cc(Cl)ccc1Cl`: the IC50 at Anoctamin-1 amounted to 0.27 µM.

Compound `O=C(Nc1scc(-c2ccc(Cl)cc2)c1C(=O)O)c1cc(Cl)ccc1I` came in with an IC50 at Anoctamin-1 of 12 µM.

Turning to `Cc1ccc(Cl)c(C(=O)Nc2scc(-c3ccc(Cl)cc3)c2C(=O)O)c1`, 1.79 µM corresponded to half-maximal inhibition at Anoctamin-1 (IC50).

In the case of `O=C(Nc1scc(-c2ccc(Cl)cc2)c1C(=O)O)c1ccccc1OC(F)(F)F`, on Anoctamin-1, the midpoint of inhibition, the IC50, lay at 5.66 µM.

For the compound `O=C(Nc1scc(-c2ccc(Cl)cc2)c1C(=O)O)c1cc(Br)ccc1Cl`, the IC50 on Anoctamin-1 is 83.5 µM.

For `CCOC(=O)Nc1ccc(NCc2ccc(F)cc2)cc1N`, the inhibition in [9] came to 100%.

As to `COc1ccc(Cl)cc1C(=O)Nc1scc(-c2ccc(Cl)cc2)c1C(=O)O`, the IC50 on Anoctamin-1 was greater than 100 µM.

At Anoctamin-1, `O=C(Nc1scc(-c2ccc(Cl)cc2)c1C(=O)O)c1cc(I)ccc1Cl` returned an IC50 of 78.9 µM.

Compound `Cc1ccc(Cl)cc1C(=O)Nc1scc(-c2ccc(Cl)cc2)c1C(=O)O` registered an IC50 against Anoctamin-1 greater than 100 µM.

The compound `O=C(Nc1scc(-c2ccc(Cl)cc2)c1C(=O)O)c1cc(F)ccc1Cl` gave an IC50 at Anoctamin-1 of 6.55 µM.

The compound `O=C(Nc1scc(-c2ccc(Cl)cc2)c1C(=O)O)c1cccnc1` yielded an IC50 against Anoctamin-1 of 70.6 µM.

At Anoctamin-1, `O=C(Nc1scc(-c2ccc(Cl)cc2)c1C(=O)O)c1cc(F)ccc1Br` showed an IC50 of 0.96 µM.

In turn, `O=C(O)c1c(-c2ccc(Cl)cc2)csc1NC(=O)c1cccc2ccccc12` returned a half-inhibitory concentration (IC50) on Anoctamin-1 of 0.79 µM.

For the compound `O=C(O)c1c(-c2ccc(Cl)cc2)csc1NC(=O)c1cccc2ncccc12`, the IC50 at Anoctamin-1 amounted to 6.99 µM.

Consider CADMIUM DICHLORIDE, for which, in [10], the inhibition turned out to be 91.4%.

Compound `O=C(Nc1scc(-c2ccc(Cl)cc2)c1C(=O)O)c1cc(Cl)ccc1C(F)(F)F` yielded an IC50 on Anoctamin-1 of 1.59 µM.

As for `COc1ccccc1/N=N/C(=O)COc1ccc(Cl)cc1C`, the IC50 on Anoctamin-1 was determined as 1.07 µM. The inhibition is 12.6% in [3] and 42.7% in series [4].

With `CC(C)Cc1ccc(C(C)C(=O)O)cc1` (configuration not stated), in the series with Mus musculus [8], the outcome was Active.

On to `O=C(Nc1scc(-c2ccc(Cl)cc2)c1C(=O)O)c1ccncc1`, for which half-maximal inhibition against Anoctamin-1 (IC50) was put at 6.27 µM.

Turning to `O=C(O)c1c(-c2ccc(Cl)cc2)csc1NC(=O)c1cccc2cccnc12`, the IC50 against Anoctamin-1 is greater than 300 µM.

As for `O=C(Nc1scc(-c2ccc(Cl)cc2)c1C(=O)O)c1cccc(Cl)c1Cl`, the IC50 at Anoctamin-1 was found to be 1.94 µM.

`O=C(Nc1scc(-c2ccc(Cl)cc2)c1C(=O)O)c1cc(C(F)(F)F)ccc1Cl`: on Anoctamin-1, the IC50 came to 36.9 µM.

The compound `O=C(Nc1scc(-c2ccc(Cl)cc2)c1C(=O)O)c1c(Cl)cccc1Cl` returned an IC50 on Anoctamin-1 of 12.1 µM.

As to `CC(=O)Oc1ccccc1C(=O)Nc1ncc([N+](=O)[O-])s1` [NITAZOXANIDE], 0.424 µM corresponded to half-maximal inhibition on Anoctamin-1 (IC50).

On Anoctamin-1, `O=C(Nc1scc(-c2ccc(Cl)cc2)c1C(=O)O)c1cccc2c1OCO2` registered an IC50 greater than 100 µM.

`O=C(Nc1scc(-c2ccc(Cl)cc2)c1C(=O)O)c1cccc2c1OCCO2` came in with an IC50 against Anoctamin-1 greater than 100 µM.

At Anoctamin-1, `O=C(Nc1ccc([N+](=O)[O-])cc1Cl)c1cc(Cl)ccc1O` [NICLOSAMIDE] displayed an IC50 of 0.028 µM.

For `O=C(Nc1scc(-c2ccc(Cl)cc2)c1C(=O)O)c1cc(Br)ccc1F`, the IC50 at Anoctamin-1 is 59.8 µM.

The compound `O=C(Nc1scc(-c2ccc(Cl)cc2)c1C(=O)O)c1cc(I)ccc1F` gave an IC50 at Anoctamin-1 of 4.49 µM.
